Measurements as given in patent US10561638B2, “Methods for treating dependence” (Biotie Therapies, Inc., priority 2007, dated 2020).
“Also recorded” adds a separate entry of the source.

Columns and labels:
[1] = system: short-term or working memory in rats; test: Delayed-matching-to-position (DMTP) test; format: in vivo, Sprague Dawley rats
Method: In the present DMTP study, rats were trained to remember the position of a lever across a scheduled delay of either 0, 8, 16 or 32 s in order to earn food reward. […] Another group of rats received only vehicle treatment throughout the experiment. […] The dependent measures in the present study included percentage of correct choices, the latency to make choice responses and the number of trials which the animals were able to complete during the 70 min test sessions. Changes in the former measure may indicate changes in memory and/or attentional function whereas changes in the latter two measures may be indicative of other non-cognitive effects of the drugs. Matching to position training began next. This and all subsequent training was conducted with the partitions fitted into the operant boxes. The sessions were initially 50 minutes long. Rats were placed in the operant box and the session began when the houselight was illuminated. Following a 30 s intertrial interval (ITI), one of the two levers (the sample lever) was inserted into the chamber. The lever remained inserted into the chamber until a lever-press response occurred. […] As soon as the magazine flap was pressed the magazine light was extinguished and both levers were inserted. […] The magazine light remained on until the flap was pressed. […] A 30 s ITI was initiated before the commencement of a new trial. The lever inserted as the sample lever was semi-randomly determined such that the right and lefthand levers were presented as the sample lever 8 times in a block of 16 trials. Following 24 sessions, the animals were performing the matching to position task with a high degree of accuracy. On Session 25 a variable delay interval was interposed between the depression of the sample lever and presentation of the levers on the choice trial. After a response to the sample lever, the choice levers were inserted following the first flap press occurring after either a 0 s (immediate), 4, 8 or 16 s delay. The order of the four types of trials (0, 4, 8 or 16 s delay) was semi-randomly determined with the constraint that in a 16 trial block, each delay occurred 4 times; twice on a left trial and twice on a right trial. […] The same trial was reinstated following the end of the ITI. From Session 25 onward the time-out period following incorrect choices was omitted and the session length was increased to 70 minutes. […] Due to poor performance at the 64 s delay, however, this delay was not used in any further sessions. On Session 59, delays of 0, 8, 16 and 32 s were used. These delays were used in all subsequent sessions. Only 51 of the 56 rats completed more than 24 trials (correction plus non-correction) during Session 59. These rats were selected and semi-randomly assigned to the following 7 groups such that the groups were matched on performance (percent correct, response latency and number of trials completed): […] Thus, the drug treatments administered to the seven groups during the 11 consecutive days of the present experiment were: The data collected and analyzed in the present DMTP study include 1) the percentage of correct responses; 2) the latency between performance of a response to the sample lever and the performance of the choice response and 3) the total number of correction and non-correction trials completed. The former two dependent measures were collected for the non-correction trials only. […] Two-way analysis of variance (ANOVA) with drug treatment as the between-subjects factor and delay (0, 8, 16 or 32 s) as the within-subjects factor was used to analyze percentage of correct choices and response latency. These analyses were conducted separately for each block of data. Significant interactions were followed by a one-way ANOVA which was conducted at each delay. A significant main effect from a one-way ANOVA was followed by a two-tailed Dunnett's t-test. One-way ANOVA followed by a post hoc Dunnett's test, when appropriate, was used to analyze the mean number of trials completed. […]

rats = test: Chronic (10 day) dosing behavioral tests in rats
Method: The effects of chronic dosing of nepicastat in rats were examined. Between three and thirteen days prior to the first dosing day the rats were placed inside the startle apparatus and after a five minute acclimation period they were presented with a 118 dB noise burst on average once a minute (a variable inter-trial interval ranging between 30 and 90 seconds will be used) for 20 minutes. The startle responses were measured and a mean for the last twenty startle response was calculated for each rat.
The following behavioral tests were administered during and after chronic dosing; body core temperature, motor activity, acoustic startle reactivity, and pre-pulse inhibition of acoustic startle.
The animals were tested in an enclosed room with a white noise generator running Motor activity tests were conducted immediately after the body core temperature reading taken on dosing day ten (about 3 hours and 35 minutes after the morning daily dose of nepicastat, and SKF-102698, and 20 minutes prior to the daily administration of clonidine and d-amphetamine on dosing day ten). Motor activity tests were run for one hour. A diagnostic program was run on each of the motor activity chambers prior to each test session to assure that the photo beams and light sensors were operating properly. […] D-amphetamine was used as the positive control for this assay.
Rat body core temperatures were obtained by inserting the rectal probe 2 cm into the colon of each rat. Each rat's body core temperature was measured three times and the average of the three reading was calculated. Body core temperature readings were obtained immediately prior to the ten day chronic dosing schedule (to obtain a baseline), and three and half hour after the morning daily dose of nepicastat, and SKF-102698, and 15 minutes prior to the daily administration of clonidine and d-amphetamine, on dosing days one, five and ten. […] Both clonidine (an alpha2 agonist), and d-amphetamine (a dopamine releaser) were used as the positive controls for this assay.
Acoustic startle reactivity (a series of muscle contractions elicited by an intense burst of noise with a rapid onset), and pre-pulse inhibition (sensorimotor gating measured by analyzing any decrease in startle reactivity which occurs when a startling stimulus is immediately preceded by a non startling stimulus) were both measured in eight SR-Lab (San Diego Instruments, San Diego, Calif.) test stations. The rats were placed individually in a Plexiglas cylinder (10 cm diameter) which was housed in a ventilated sound-attenuating enclosure. Acoustic noise bursts (a broad band noise with a rise time and fall time of 1 msec) were presented via a speaker mounted 30 cm above the animal. Also, these speakers produced a 68 dB level of background noise throughout all test sessions. A piezoelectric accelerometer attached below the plexiglass cylinder transduced the subject's movement into a voltage which was then rectified and digitized (on a scale from 0 to 4095) by a PC computer equipped with SR-Lab software and interface assembly. A decibel meter was used to calibrate the speakers in each of the eight test station to ±1% of the mean. Additionally, a SR-Lab calibrating instrument was used to calibrate each of the eight startle detection apparatuses to ±2% of the mean. Startle reactivity and pre-pulse inhibition tests were run concurrently immediately alter the motor activity test (about 4 hours and 40 minutes after the morning daily injection of nepicastat, and SKF-102698, and 10 minutes after a supplemental administration of clonidine and d-amphetamine on dosing day ten).

SHRs = test: 30-day radio-telemetry study in SHRs
[2] = system: tissue noradrenaline and dopamine content; test: Tissue catecholamines in SHRs after three oral doses 12 h apart; format: in vivo, spontaneously hypertensive rats; conditions: for increase in DA/NE ratio: 30 mg/kg; for dopamine vs vehicle / dopamine/norepinephrine ratio vs vehicle / norepinephrine vs vehicle: 30 mg/kg x3
Method: Male SHRs (15-16 weeks old, Charles River, Wilmington, Mass., USA) were used in in vivo studies. On the day of the study, animals were weighed and randomly assigned to be dosed with either vehicle (control) or the appropriate dose of nepicastat (3, 10, 30 or 100 mg·kg^−1, po) or Compound B (30 mg·kg^−1, po) three consecutive times, twelve hours apart. At six hours after the third dose, the rats were anaesthetized with halothane, decapitated and tissues (cerebral cortex, mesenteric artery and left ventricle) were rapidly harvested, weighed, placed in iced perchloric acid (0.4 M), frozen in liquid nitrogen and stored at −70° C. until subsequent analysis. To quantify noradrenaline and dopamine concentrations, tissues were homogenized by brief sonication and centrifuged at 13,000 rpm for 30 minutes at 4° C. The supernatant, spiked with 3,4-dihydroxybenzylamine (internal standard), was assayed for noradrenaline and dopamine by HPLC using electrochemical detection.
Nepicastat was used in in vivo biochemical studies to study the effects in spontaneously hypertensive rats (SHRs) and normal beagle dogs. On the day of the study, the animals were weighed and randomly assigned to receive either placebo (vehicle) or the appropriate dose of nepicastat. Each rat was dosed orally three times, 12 h apart, beginning in the morning. At 6 h after the third dose, the rats were anesthetized with halothane, decapitated, and the tissues (cerebral cortex, mesenteric artery and left ventricle) were rapidly harvested, weighed, placed in iced 0.4 M perchloric acid, frozen in liquid nitrogen and stored at −70° C. until analysis. Tissue NE and DA concentrations were assayed by HPLC using electrochemical detection. Male beagle dogs (10-16 kg, Marshall Farms USA Inc, North Rose, N.Y.) were used in the study. On the day of the study, dogs were randomly assigned to receive either placebo (empty capsule) or the appropriate dose of nepicastat. Each dog was dosed twice a day for 4.5 days. 6 h after the first dose on day 5, the dogs were euthanized with pentobarbital and the tissues (cerebral cortex. renal artery, left ventricle) harvested, weighed, placed in iced 0.4 M perchloric acid, frozen in liquid nitrogen and stored at −70° C. until analysis. Tissue NE and DA concentrations were assayed by HPLC using electrochemical detection.
Fifteen to sixteen week old male spontaneously hypertensive rats (SHRs) (Charles River Labs) were allowed food and water ad libitum. Animals were weighed and randomly assigned to one of the following treatment groups: 1) distilled water vehicle (dH2O), or nepicastat at 3, 10, 30, and 100 mg/kg, 2) Compound B at 30 mg/kg in distilled water, or 3) PEG 400:dH2O vehicle or SKF-102698 at 30 mg/kg. Each rat was dosed orally (p.o., using a gavage needle) three times 12 hours apart, beginning in the morning. At six hours after the third dose rats were anesthetized with halothane, decapitated, and the cortex, mesenteric artery, and left ventricle were rapidly harvested, weighed, placed in iced 0.4 M perchioric acid, frozen in liquid nitrogen, and stored at −70° C. Tissue dopamine and norepinephrine concentrations were assayed by high performance liquid chromatography and electrochemical detection.
Four series of statistical analyses were performed. The first series compared the rats treated with various doses of nepicastat, and Compound B at 30 mg/kg to the vehicle control animals. A nonparametric one-way analysis of variance (ANOVA) with factor Dose and blocking factor Day was performed for each tissue and strain separately. […] Pairwise analysis between treated and controls at each dose were carried out using Dunnett's test to control the experiment-wise error rate. The second statistical test compared SKF-102698 to the PEG-dH2O vehicle treated group using a nonparametric t-test. The third statistical test compared Compound B to nepicastat at doses of 30 mg/kg using a nonparametric t-test.

SMILES: CN1[C@@H]2C[C@@H](OC(=O)[C@H](CO)c3ccccc3)C[C@H]1[C@@H]1O[C@@H]12 [scopolamine, Scopolamine HBr, reference compound]
- number of trials completed ([1]; all scopolamine treated groups): significantly reduced
- percentage of correct choices vs Vehicle/Vehicle ([1]; scopolamine HBr 0.1 mg/kg s.c.): significantly impaired percentage of correct choices

SMILES: C[C@H](N)Cc1ccccc1 [d-amphetamine]
- change in body weight from pre-dose (rats; 10 days): significantly smaller change in body weight
- pre-pulse inhibition (rats; dosing day ten): Neither d-amphetamine nor SKF-102698 was significantly different
- locomotor activity vs vehicle (rats; dosing day ten, nepicastat 5, 15, 50, SKF-102698 50 mg/kg bid, clonidine 20 μg/kg, d-amphetamine 2 mg/kg bid): significantly higher locomotor activity
- body core temperature (rats; dosing days one, five, ten): significantly increasing body core temperature on day one

SMILES: CCOC(=O)[C@H](CCc1ccccc1)N[C@@H](C)C(=O)N1CCC[C@H]1C(=O)O [enalapril, reference compound]
- body weights (SHRs; enalapril 1 mg/kg): slightly decreased body weight
- heart rate (SHRs; enalapril 1 mg/kg): did not affect HR
- left ventricular mass (SHRs; enalapril 1 mg/kg): did not regress the hypertrophy
- antihypertensive effect of mono-administration (SHRs; enalapril 1 mg/kg or nepicastat 30 mg/kg (Series III)): failed to lower blood pressure; also recorded: only a small antihypertensive effect; also recorded: did not induce significant antihypertensive effects
- antihypertensive effect throughout the study (SHRs; enalapril 10 mg/kg): −20 to −30 mmHg
- body weights (SHRs; enalapril 10 mg/kg): significantly decreased (p<0.05) or had no effect
- heart rate (SHRs; enalapril 10 mg/kg): transient small tachycardia
- left ventricular mass (SHRs; enalapril 10 mg/kg): significantly reduced left ventricular mass in Series II, but not in Series I
- maximal decrease in MBP (SHRs; enalapril 10 mg/kg, within 1 hr after dosing on day 5): −29 mmHg

SMILES: NCc1c[nH]c(=S)n1[C@@H]1CCc2c(F)cc(F)cc2C1 [Compound B, (R)-5-Aminomethyl-1-(5,7-difluoro-1,2,3,4-tetrahydronaphth-2-yl)-2,3-dihydro-2-thioxo-1H-imidazole]
- increase in DA/NE ratio ([2]; cerebral cortex): 1.1 fold
- dopamine vs vehicle ([2]; cerebral cortex): significant increase
- dopamine/norepinephrine ratio vs vehicle ([2]; cerebral cortex): no effect
- norepinephrine vs vehicle ([2]; cerebral cortex): significant increase
- increase in DA/NE ratio ([2]; left ventricle): 3.5 fold
- dopamine vs vehicle ([2]; left ventricle): significant increase
- dopamine/norepinephrine ratio vs vehicle ([2]; left ventricle): significant increase
- norepinephrine vs vehicle ([2]; left ventricle): did not significantly lower
- increase in DA/NE ratio ([2]; mesenteric artery): 2.6 fold
- dopamine vs vehicle ([2]; mesenteric artery): significant increase
- dopamine/norepinephrine ratio vs vehicle ([2]; mesenteric artery): significant increase
- norepinephrine vs vehicle ([2]; mesenteric artery): did not significantly lower
